Counter-ions that a name gives are not always drawn.
Tests used:
Adrenergic β2 = biological target: T1, Adrenergic β2 (Homo sapiens, UniProt P07550); assay: Alternative adrenergic β2 mediated cAMP production in H292 cells (AlphaScreen cAMP detection); format: cell-based; settings: for EC50: cAMP, test compounds incubated 60 minutes at room temperature, 300 μM rolipram, read-out: β2 pEC50 (converted); for β2 Int Act: fraction relative to the maximum activity determined for formoterol, 60 minutes incubation
T1 construct: endogenous in cells; host or cells: H292 cells
Experimental: Alternative Adrenergic β2 Mediated cAMP Production Cell Preparation
H292 cells were grown in 225 cm2 flasks incubator at 37° C., 5% CO2 in RPMI medium containing, 10% (v/v) FBS (foetal bovine serum) and 2 mM L-glutamine.
Adherent H292 cells were removed from tissue culture flasks by treatment with Accutase™ cell detachment solution for 15 minutes. Flasks were incubated for 15 minutes in a humidified incubator at 37° C., 5% CO2. Detached cells were re-suspended in RPMI media (containing 10% (v/v) FBS and 2 mM L-glutamine) at 0.05×10^6 cells per mL. 5000 cells in 100 μL were added to each well of a tissue-culture-treated 96-well plate and the cells incubated overnight in a humidified incubator at 37° C., 5% CO2. The culture media was removed and cells were washed twice with 100 μL assay buffer and replaced with 50 μL assay buffer (HBSS solution containing 10 mM HEPES pH7.4 and 5 mM glucose). Cells were rested at room temperature for 20 minutes after which time 25 μL of rolipram (1.2 mM made up in assay buffer containing 2.4% (v/v) dimethylsulphoxide) was added. Cells were incubated with rolipram for 10 minutes after which time test compounds were added and the cells were incubated for 60 minutes at room temperature. The final rolipram concentration in the assay was 300 μM and final vehicle concentration was 1.6% (v/v) dimethylsulphoxide. The reaction was stopped by removing supernatants, washing once with 100 μL assay buffer and replacing with 50 μL lysis buffer. The cell monolayer was frozen at −80° C. for 30 minutes (or overnight).
AlphaScreen™ cAMP Detection
The concentration of cAMP (cyclic adenosine monophosphate) in the cell lysate was determined using AlphaScreen™ methodology. The frozen cell plate was thawed for 20 minutes on a plate shaker then 10 μL of the cell lysate was transferred to a 96-well white plate. 40 μL of mixed AlphaScreen™ detection beads pre-incubated with biotinylated cAMP, was added to each well and the plate incubated at room temperature for 10 hours in the dark. The AlphaScreen™ signal was measured using an EnVision spectrophotometer (Perkin-Elmer Inc.) with the recommended manufacturer's settings. cAMP concentrations were determined by reference to a calibration curve determined in the same experiment using standard cAMP concentrations. Concentration response curves for agonists were constructed and data was fitted to a four parameter logistic equation to determine both the pEC50 and Intrinsic Activity. Intrinsic Activity was expressed as a fraction relative to the maximum activity determined for formoterol in each experiment.

[1] = biological target: T2, recombinant human α1D receptor (Homo sapiens, UniProt P25100); assay: Adrenergic α1D selectivity assay, inhibition of [3H]-prazosin binding to membranes; settings: HEK293 membranes, [3H]-prazosin 0.3 nM; read-out: α1 bind pIC50 (converted)
T2 construct: made in house; host or cells: HEK293 cells (membranes)
T2 sequence (P25100 1-572): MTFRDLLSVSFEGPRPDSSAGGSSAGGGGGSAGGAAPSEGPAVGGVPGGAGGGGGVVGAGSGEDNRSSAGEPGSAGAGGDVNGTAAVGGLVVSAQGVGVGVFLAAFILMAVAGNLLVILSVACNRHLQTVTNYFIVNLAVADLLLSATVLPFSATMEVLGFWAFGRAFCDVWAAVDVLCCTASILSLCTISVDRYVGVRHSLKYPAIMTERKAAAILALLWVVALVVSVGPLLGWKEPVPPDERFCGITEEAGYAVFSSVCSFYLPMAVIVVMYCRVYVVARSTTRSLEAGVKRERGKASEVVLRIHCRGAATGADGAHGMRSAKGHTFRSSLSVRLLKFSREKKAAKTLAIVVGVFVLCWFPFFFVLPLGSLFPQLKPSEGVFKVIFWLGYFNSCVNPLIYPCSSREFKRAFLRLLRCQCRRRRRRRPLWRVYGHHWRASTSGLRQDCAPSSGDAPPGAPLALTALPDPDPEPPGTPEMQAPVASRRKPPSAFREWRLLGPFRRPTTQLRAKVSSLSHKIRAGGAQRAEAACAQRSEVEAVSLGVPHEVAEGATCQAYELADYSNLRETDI
Experimental: Membranes were prepared from human embryonic kidney 293 (HEK293) cells expressing recombinant human α1D receptor. These were diluted in Assay Buffer (50 mM HEPES, 1 mM EDTA, 0.1% gelatin, pH 7.4) to provide a final concentration of membranes that gave a clear window between maximum and minimum specific binding.
Assays were performed in U-bottomed 96-well polypropylene plates. 10 μL [^3H]-prazosin (0.3 nM final concentration) and 10 μL of test compound (10× final concentration) were added to each test well. For each assay plate 8 replicates were obtained for [^3H]-prazosin binding in the presence of 10 μL vehicle (10% (v/v) DMSO in Assay Buffer; defining maximum binding) or 10 μL BMY7378 (10 μM final concentration; defining non-specific binding (NSB)). Membranes were then added to achieve a final volume of 100 μL. The plates were incubated for 2 hours at room temperature and then filtered onto PEI coated GF/B filter plates, pre-soaked for 1 hour in Assay Buffer, using a 96-well plate Tomtec cell harvester. Five washes with 250 μL wash buffer (50 mM HEPES, 1 mM EDTA, pH 7.4) were performed at 4° C. to remove unbound radioactivity. The plates were dried then sealed from underneath using Packard plate sealers and MicroScint-O (50 μL) was added to each well. The plates were sealed (TopSeal A) and filter-bound radioactivity was measured with a scintillation counter (TopCount, Packard BioScience) using a 3-minute counting protocol.
(§1) Total specific binding (B0) was determined by subtracting the mean NSB from the mean maximum binding. NSB values were also subtracted from values from all other wells. […] Data was fitted to a four parameter logistic equation to determine the compound potency, which was expressed as pIC50 (negative log molar concentration inducing 50% inhibition of [^3H]-prazosin binding).

[2] = biological target: T3, recombinant human Dopamine Subtype D2s receptors (Homo sapiens, UniProt P14416); assay: Dopamine D2 selectivity assay, inhibition of [3H]-spiperone binding to membranes; settings: [3H]-spiperone 0.16 nM; read-out: D2 bind pIC50 (converted)
T3 construct: purchased Perkin Elmer
Experimental: Membranes containing recombinant human Dopamine Subtype D2s receptors were obtained from Perkin Elmer. These were diluted in Assay Buffer (50 mM HEPES, 1 mM EDTA, 120 mM NaCl, 0.1% gelatin, pH 7.4) to provide a final concentration of membranes that gave a clear window between maximum and minimum specific binding.
Assays were performed in U-bottomed 96-well polypropylene plates. 30 μL [^3H]-spiperone (0.16 nM final concentration) and 30 μL of test compound (10× final concentration) were added to each test well. For each assay plate 8 replicates were obtained for [^3H]-spiperone binding in the presence of 30 μL vehicle (10% (v/v) DMSO in Assay Buffer; defining maximum binding) or 30 μL Haloperidol (10 μM final concentration; defining non-specific binding (NSB)). Membranes were then added to achieve a final volume of 300 μL. The plates were incubated for 2 hours at room temperature and then filtered onto PEI coated GF/B filter plates, pre-soaked for 1 hour in Assay Buffer, using a 96-well plate Tomtec cell harvester. Five washes with 250 μL wash buffer (50 mM HEPES, 1 mM EDTA, 120 mM NaCl, pH 7.4) were performed at 4° C. to remove unbound radioactivity. The plates were dried then sealed from underneath using Packard plate sealers and MicroScint-O (50 μL) was added to each well. The plates were sealed (TopSeal A) and filter-bound radioactivity was measured with a scintillation counter (TopCount, Packard BioScience) using a 3-minute counting protocol.
as §1, with “[^3H]-spiperone” for “[^3H]-prazosin”

T3 sequence (P14416 1-414 isoform P14416-2): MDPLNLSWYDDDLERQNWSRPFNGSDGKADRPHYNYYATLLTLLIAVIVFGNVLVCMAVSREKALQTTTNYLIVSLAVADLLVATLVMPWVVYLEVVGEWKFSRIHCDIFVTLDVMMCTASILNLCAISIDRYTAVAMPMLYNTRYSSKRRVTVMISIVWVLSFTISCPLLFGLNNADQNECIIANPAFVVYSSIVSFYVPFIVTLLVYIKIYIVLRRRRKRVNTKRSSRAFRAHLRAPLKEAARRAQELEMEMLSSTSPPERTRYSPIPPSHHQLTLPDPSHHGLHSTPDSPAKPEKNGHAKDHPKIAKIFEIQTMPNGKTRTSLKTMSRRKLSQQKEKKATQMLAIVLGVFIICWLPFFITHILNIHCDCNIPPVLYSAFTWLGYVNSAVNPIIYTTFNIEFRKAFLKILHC
T1 sequence (P07550 whole entry): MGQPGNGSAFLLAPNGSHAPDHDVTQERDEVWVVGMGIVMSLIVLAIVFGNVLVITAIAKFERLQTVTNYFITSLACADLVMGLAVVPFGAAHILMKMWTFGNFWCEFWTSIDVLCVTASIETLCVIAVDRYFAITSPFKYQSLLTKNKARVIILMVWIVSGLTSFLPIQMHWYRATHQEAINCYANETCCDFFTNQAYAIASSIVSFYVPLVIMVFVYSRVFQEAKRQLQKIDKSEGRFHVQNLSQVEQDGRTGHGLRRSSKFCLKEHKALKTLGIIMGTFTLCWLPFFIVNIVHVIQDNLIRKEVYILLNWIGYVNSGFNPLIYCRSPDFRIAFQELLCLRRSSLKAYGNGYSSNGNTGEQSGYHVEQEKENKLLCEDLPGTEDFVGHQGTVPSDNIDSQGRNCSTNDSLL

Compound	EC50 (Adrenergic β2)	β2 Int Act (Adrenergic β2)	IC50 [1]	IC50 [2]
CCN(CC)CCN(CCNCCc1ccc(O)c2[nH]c(=O)sc12)C(=O)CCOCCc1cccc(F)c1 [Example 22, N-(2-Diethylaminoethyl)-3-[2-(3-fluorophenyl)ethoxy]-N-{2-[2-(4-hydroxy-2-oxo-2,3-dihydro-1,3-benzothiazol-7-yl)ethylamino]ethyl}propanamide dihydrobromide]	7.94 nM	0.8	1260 nM	5010 nM
CCN(CC)CCN(CCNCCc1ccc(O)c2[nH]c(=O)sc12)C(=O)CCOCCc1cccc(O)c1 [Example 29, N-(2-Diethylaminoethyl)-N-{2-[2-(4-hydroxy-2-oxo-2,3-dihydro-1,3-benzothiazol-7-yl)ethylamino]ethyl}-3-[2-(3-hydroxyphenyl)ethoxy]propanamide dihydrobromide]	6.31 nM	0.8	1260 nM	251 nM
CCN(CC)CCN(CCNCCc1ccc(O)c2[nH]c(=O)sc12)C(=O)CCOCCc1ccc(Cl)c(Cl)c1 [Example 27, 3-[2-(3,4-Dichlorophenyl)ethoxy]-N-(2-diethylaminoethyl)-N-{2-[2-(4-hydroxy-2-oxo-2,3-dihydro-1,3-benzothiazol-7-yl)ethylamino]ethyl}propanamide dihydrobromide]	31.6 nM	0.6	1000 nM	3160 nM
CCN(CC)CCN(CCNCCc1ccc(O)c2[nH]c(=O)sc12)C(=O)CCOCCc1cccc(Cl)c1Cl [Example 20, 3-[2-(2,3-Dichlorophenyl)ethoxy]-N-(2-diethylaminoethyl)-N-(2-{[2-(4-hydroxy-2-oxo-2,3-dihydro-1,3-benzothiazol-7-yl)ethyl]amino}ethyl)propanamide ditrifluoroacetate]	10 nM	0.6	398 nM	1580 nM
CCN(CC)CCN(CCNCCc1ccc(O)c2[nH]c(=O)sc12)C(=O)CCOCCc1ccccc1C(F)(F)F [Example 17, N-[2-(Diethylamino)ethyl]-N-(2-{[2-(4-hydroxy-2-oxo-2,3-dihydro-1,3-benzothiazol-7-yl)ethyl]amino}ethyl)-3-{2-[2-(trifluoromethyl)phenyl]ethoxy}propanamide ditrifluoroacetate]	25.1 nM	0.9	794 nM	
CCN(CC)CCN(CCNCCc1ccc(O)c2[nH]c(=O)sc12)C(=O)CCOCCc1ccc2ccccc2c1 [Example 32, N-[2-(Diethylamino)ethyl]-N-(2-{[2-(4-hydroxy-2-oxo-2,3-dihydro-1,3-benzothiazol-7-yl)ethyl]amino}ethyl)-3-[2-(2-naphthyl)ethoxy]propanamide]	10 nM	0.5	631 nM	794 nM
CCN(CC)CCN(CCNCCc1ccc(O)c2[nH]c(=O)sc12)C(=O)CCOCCc1ccccc1Cl [Example 31, 3-[2-(2-Chlorophenyl)ethoxy]-N-(2-diethylaminoethyl)-N-{2-[2-(4-hydroxy-2-oxo-2,3-dihydro-1,3-benzothiazol-7-yl)ethylamino]ethyl}propanamide ditrifluoroacetate]	20 nM	0.9	251 nM	5010 nM
CCN(CC)CCN(CCNCCc1ccc(O)c2[nH]c(=O)sc12)C(=O)CCOCCc1cccc(Cl)c1 [Example 18, 3-[2-(3-Chlorophenyl)ethoxy]-N-[2-(diethylamino)ethyl]-N-(2-{[2-(4-hydroxy-2-oxo-2,3-dihydro-1,3-benzothiazol-7-yl)ethyl]amino}ethyl)propanamide ditrifluoroacetate]	5.01 nM	0.7	794 nM	2510 nM

From patent US7709511B2, “Benzothiazolone derivatives” (AstraZeneca AB, priority 2005, dated 2010)
